What was measured:
[1] = Chemical Abstracts Vol. 71, 113122 a (1969); cited from earlier work
[2] = J. Het. Chem. 23, 1801 (1986); cited from earlier work
male Swiss mice = experiment: Acute toxicity in mice; assay type: in vivo; settings: intraperitoneal, deaths after 48 hours, doses up to 300 mg/kg
Protocol: Acute toxicity of each compound was determined in groups of 5 male Swiss mice per dose. Administration of flosequinan and test compounds was made by the intraperitoneal route up the dose of 300 mg/kg. After 48 hours the number of deaths was noted and the dose producing 100% of deaths (LD₁₀₀) was calculated.

[3] = test system: Conscious renal hypertensive beagle dogs; experiment: Conscious renal hypertensive beagle dogs, fall in mean blood pressure after oral dosing; assay type: in vivo; settings: oral by gavage; for CONSC.HYPERT. DOG AUC (0-4h) (1 mg/kg): 1 mg/kg po; for CONSC.HYPERT. DOG AUC (0-4h) at mg/kg po: dose not given
Protocol: Conscious renal hypertensive beagle dogs
Male beagle dogs were made hypertensive by the method of Page (J.Amer.Med.Assoc.(1939),113,2046). Two months later, these animals were prepared with exteriorized carotid loops (Gristwood et al., Br.J.Pharmacol. (1988),93,893) three weeks before using for experimentation. Animals were fasted 17 hours before administration of flosequinan or test compounds orally. Animals were then placed in restraints and allowed to settle for 1 hour. Mean blood pressure (MBP) was measured by puncturing the carotid loop with a 18G needle attached to a pressure transducer. Drugs (suspended in 1% methylcellulose + 0.05% Tween 80) were given orally by gavage at different doses, and mean blood pressure was measured over 4 hours using a polygraph. Drug responses were measured by calculating the area under the curve of percentage fall in mean blood pressure and time (units= % fall in MBP x hours) (Allen et al., J.Clin.Pharmacol.(1982),1S-23S).

[4] = test system: Guinea-pig isolated tracheal rings; experiment: Guinea-pig isolated tracheal rings (spontaneous tone), relaxation; set-up: species or system guinea-pigs; settings: Cavia porcellus, concentration producing 50% relaxation, isoprenaline 10^-6 M response = 100%, read-out: TRACHEAL RING EC50
Protocol: Guinea-pig isolated tracheal rings (spontaneaus tone)
Male guinea-pigs (400-500 g) were killed, and their tracheae were removed and cut into pairs of rings. The rings were then mounted in organ baths containing Krebs-Henseleit solution at 37°C and oxygenated with […] under 1 g resting tension (Allen et al., Br.J.Pharmacol.(1986),89,395). After a 1 hour stabilization period, responses to isoprenaline 10⁻⁶ M were obtained. Tissues were then washed and after a period for restabilization (20 min) the effects of test drugs and flosequinan were investigated by adding cumulative concentrations of these to the baths.
Responses were measured as the percentage of the relaxation response to isoprenaline 10⁻⁶ M. The concentration producing a 50% relaxation taking isoprenaline responses as 100% (EC₅₀) was calculated.

anaesthetized rats = experiment: Vasodilator activity in anaesthetized rats (fall in mean blood pressure); assay type: in vivo, Wistar rats; settings: Rattus norvegicus, iv; dose producing 30% fall in mean blood pressure; i.v. bolus injection; read-out: MAN BP IN THE ANAESTH. RAT ED30
Protocol: Vasodilator activity in anaesthetized rats
Male Wistar rats of weight range 300-400 g were anaesthetized with pentobarbital (60 mg/kg i.p.). The trachea was canulated to permit artificial respiration. A carotid artery and a jugular vein were cannulated to permit recording of mean arterial blood pressure and i.v. administration of drugs respectively.
Following a period of stabilisation (20 min), flosequinan or test drugs were administered by bolus injection and falls in mean blood pressure recorded. Responses were measured as the percentage fall in blood pressure over control, calculating the dose that produced an effect of 30% (ED₃₀).

[5] = test system: Guinea-pig isolated right ventricular strips; experiment: Guinea-pig isolated right ventricular strips, increase in developed tension; set-up: species or system guinea-pigs; settings: Cavia porcellus, stimulated at 1 Hz; for activation at 10 µM: percentage increase in developed tension at 10^-5 M, read-out: VENTRICULAR STRIP % at 10-5 M; for activation at 1 µM: percentage increase in developed tension at 10^-6M, read-out: VENTRICULAR STRIP % (10-6M)
Protocol: Guinea-pig isolated right ventricular strips
Male guinea-pigs of weight 400-500 g were killed, their hearts were removed and 2 ventricular preparations (ca 1 cm x 1 mm) cut from the right bide. There were then mounted in organ baths containing modified Krebs-Henseleit solution at 37°C and continually aereated with […]. The preparations were placed under 1 g resting tension and electrically stimulated to contract at 1 Hz whilst force of contraction was measured using an isometric force transducer (Gristwood and Owen, Br.J.Pharmacol. (1985),87,91P). Preparations were equilibrated for 60 min during which they were washed every 15 min with fresh buffer. Flosequinan and test compounds were added to the organ baths from 10^-6 to 10^-4 M concentrations and responses measured as percentage increases in developed tension.

Row | SMILES | pharmacological activities [1] | antibacterial activity [2] | LD100 IN MICE (male Swiss mice) [mg/kg ip] | CONSC.HYPERT. DOG AUC (0-4h) (1 mg/kg) [3] | EC50 [4] [nM] | ED30 (anaesthetized rats) [mg/kg] | activation at 10 µM [5] [%] | CONSC.HYPERT. DOG AUC (0-4h) at mg/kg po [3] [% fall in MBP x hours] | activation at 1 µM [5] [%] | activation at 100 µM ([5]; percentage increase in developed tension at 10^-4M, read-out: VENTRICULAR STRIP % (10-4M)) [%]
1 | Cn1cc(N)c(=O)c2ccccc21 [1-methyl-3-amino-4(1H)quinolone] | no appreciable pharmacological activities |  |  |  |  |  |  |  |  | 
2 | CCn1cc(NS(C)(=O)=O)c(=O)c2cc(F)c(Cl)cc21 [A] |  | does not exhibit any interesting antibacterial activity |  |  |  |  |  |  |  | 
3 | Cn1cc(NS(C)(=O)=O)c(=O)c2ccccc21 [Compound 1, 1-methyl-3-methylsulfonamido-4(1H) quinolone] |  |  | >300 | 54 (1 mg/kg) % fall in MBP x hours | 240 | 0.02 | 82 |  |  | 
4 | Cn1cc(NS(C)(=O)=O)c(=O)c2cc(F)ccc21 [Compound 3, 1-methyl-3-methylsulfonylamino-6-fluoro-4(1H)quinolone] |  |  | >300 | 51 (1 mg/kg) % fall in MBP x hours | 600 | 0.06 | 53 |  |  | 
5 | Cn1cc(NS(C)(=O)=O)c(=O)c2ccc(Cl)cc21 [Compound 4, 1-methyl-3-methylsulfonylamino-7-chloro-4(1H)quinolone] |  |  | >300 |  | 500 | 0.01 |  | 68 | 55 | 
6 | Cn1cc(NS(C)(=O)=O)c(=O)c2ccc(C(F)(F)F)cc21 [Compound 5] |  |  | >300 |  | 420 | 0.03 |  |  | 35 | 
7 | Cn1cc(NS(C)(=O)=O)c(=O)c2ccc(F)cc21 [Compound 6, 1-methyl-3-methylsulfonylamino-7-fluoro-4(1H)quinolone] |  |  | >300 |  | 360 | 0.01 | 86 | 65 |  | 
8 | COc1ccc2c(c1)c(=O)c(NS(C)(=O)=O)cn2C [Compound 11] |  |  | >300 |  | 1600 | 0.05 | 52 |  |  | 
9 | Cn1cc([S+](C)[O-])c(=O)c2ccc(F)cc21 (centres unmarked) [FLOSEQUINAN, 7-fluoro-1-methyl-3-methylsulfinyl-4(1H)quinolone, reference compound] |  |  | 300 |  | 3000 | 0.2 |  | 41 |  | 75

From EP0445062A1, “4(1H)Quinolone derivatives” (LABORATORIOS ALMIRALL SA, priority 1990, dated 1991)
